Earlier results, collected in publication PMC7838024 (Acta Pharmaceutica Sinica. B, 2020).

Conditions: rats, doses from 0.5 to 1.5 mg/kg

CO[C@H]1C(=O)[C@]2(C)[C@@H](OC)C[C@H]3OC[C@@]3(OC(C)=O)[C@H]2[C@H](OC(=O)c2ccccc2)[C@]2(O)C[C@H](OC(=O)[C@H](O)[C@@H](NC(=O)OC(C)(C)C)c3ccccc3)C(C)=C1C2(C)C [CTX, cabazitaxel]
central nervous system toxicity: dose-dependent central nervous system toxicity
